Experimental data published in patent US11879137B2, “Treatment of type 1 diabetes and autoimmune diseases or disorders” (THE CHILDREN'S MEDICAL CENTER CORPORATION, priority 2017, dated 2024).
Where two headings read alike, the source gives them in different places.

Tests used:
[1] = test system: PD-L1 in MDA-MB-231 cells; test: PD-L1 protein by western blot in transfected MDA-MB-231 cells; format: cell-based, human; conditions: vs corresponding negative control; 48 h
Experimental: MDA-MB-231 breast cancer cells were cultured in DMEM high glucose medium (Gibco, Thermo Fisher Scientific; Waltham, MA USA) supplemented with 10% heat-inactivated fetal calf serum (Gibco, Thermo Fisher Scientific), 100 units/ml penicillin, 100 μg/ml streptomycin, and 2 mM L-glutamine. 2×10^5 cells were seeded in each well of a 6-well plate and transfected with 10 pmol of the miRNA mimic or miRNA mimic negative control, or 100 pmol of the anti-miR or anti-miR negative control (all from Exiqon, Qiagen) using the Lipofectamine RNAiMAX transfection reagent (Invitrogen, Thermo Fisher Scientific) in a final culture medium volume of 2 ml, following manufacturer's instructions. […] Forty-eight hours after transfection, cells were collected from each well for RNA extraction, cell lysate preparation and FACS analysis. RNA was extracted using Direct-zol RNA miniprep plus (Zymo research, Irvine, CA, USA) and RNA quality was checked and then retro-transcribed using RETROscript® Kit (Fisher Scientific) following manufacturer's instructions. […]
Protein concentration in MDA-MB-231 cell lysates was measured. […] Finally, for the quantification of western blot, images of PVDF membranes were analyzed by ImageJ software to quantify size and strength of protein bands. […]

[2] = test system: NEU1, MTOR, MYC, IGF1R, VEGFA, RB1 in MDA-MB-231 cells; test: mRNA of validated miRNA target genes (transfection control) in MDA-MB-231 cells; format: cell-based, human; conditions: VEGFA or RB1 as named for each agent, 48 h after transfection
Experimental: MDA-MB-231 breast cancer cells were cultured in DMEM high glucose medium (Gibco, Thermo Fisher Scientific; Waltham, MA USA) supplemented with 10% heat-inactivated fetal calf serum (Gibco, Thermo Fisher Scientific), 100 units/ml penicillin, 100 μg/ml streptomycin, and 2 mM L-glutamine. 2×10^5 cells were seeded in each well of a 6-well plate and transfected with 10 pmol of the miRNA mimic or miRNA mimic negative control, or 100 pmol of the anti-miR or anti-miR negative control (all from Exiqon, Qiagen) using the Lipofectamine RNAiMAX transfection reagent (Invitrogen, Thermo Fisher Scientific) in a final culture medium volume of 2 ml, following manufacturer's instructions. […] Forty-eight hours after transfection, cells were collected from each well for RNA extraction, cell lysate preparation and FACS analysis. RNA was extracted using Direct-zol RNA miniprep plus (Zymo research, Irvine, CA, USA) and RNA quality was checked and then retro-transcribed using RETROscript® Kit (Fisher Scientific) following manufacturer's instructions. Cell lysates were obtained in RIPA buffer (50 mmol/1 Tris-HCl, pH 8.0, 1% Triton-x, 0.5% sodium deoxycholate, 0.1% SDS, 150 mmol/1 sodium chloride) with protease inhibitor cocktail (Roche).
qRT-PCR for PD-L1 analysis was performed on retro-transcribed cDNA using SYBR® Green dye (Life Technologies, Thermo Fisher Scientific). Amplification was performed on a QuantStudio S6 Real Time PCR system (Thermo Fisher Scientific). To confirm a successful transfection, the mRNA level of genes known to be controlled by the targeted miRNAs were evaluated by SYBR® Green dye (Life Technologies, Thermo Fisher Scientific) according to the manufacturer's instructions. Normalized expression values were determined using the ΔΔCt method in treated as compared to negative treated samples, using GAPDH mRNA as endogenous reference. The miRNA-targeted genes tested, along with forward and reverse primer sequences used for their amplification, are listed in Table 13.
To determine if targeting the miRNA network decreases PD-L1 expression in human cancer setting, PD-L1-expressing MDA-MB-231 human breast cancer cells were transfected with a set of miRNA mimics or anti-miRs to either increase or decrease the function of a set of miRNAs not previously known to affect PD-L1 (miR-125b, miR-99a, miR-744, mir-599, miR-511, miR-206, miR-26b). The effect of treatment with miRNA mimics and anti-miRs on the percentage of PD-L1-expressing cells, as well as on PD-L1 mRNA and protein levels, was investigated. miRNA mimic/anti-miR treated-cells were compared to corresponding mimic/anti-miR negative control-treated cells by flow cytometric analysis, Real Time PCR and western blot to assess percentage of PD-L1-expressing cells, PD-L1 mRNA, and PD-L1 protein levels, respectively. A successful miRNA mimic/anti-miR transfection was confirmed by the detection of changed mRNA levels of the validated miRNA targets NEU1 (for miR-125b mimic), MTOR (for miR-99a mimic), MYC (for miR-744 mimic and miR-599 anti-miR), IGF1R (for miR-511 mimic), VEGFA (for miR-206 anti-miR) and RB1 (for miR-26b anti-miR) in treated cells (FIG. 22A). […] Lysates of miR-511 mimic and miR-206 anti-miR treated cells were not available for western blot analysis.

peripheral CD34+ cells = conditions: after mobilization
Experimental: Data are expressed as mean±standard error of the mean (SEM). Data are representative of at least two independent experiments. *P<0.05; **P<0.01; ***P<0.001. #P<0.05 vs. all
The effect of overcoming PD-L1 deficiency in human HSPCs was tested by using the same agents described herein above (e.g., tested in NOD mice). […] To study the ex vivo immunoregulatory functions of pCD34+, CD34-depleted PBMCs were co-cultured with unmodulated CD34+ or pCD34+ in the presence of insulin-associated autoantigen-2 (I-A2), and the number of IFN-γ-producing cells was quantified in an ELISPOT assay. […] Finally, the effect of plerixafor-mediated mobilization, used in clinic (5, 9), was analyzed on PD-L1 expression in CD34+ cells obtained from 5 T1D patients and 8 healthy controls (Table 10).

miR-599 anti-miR: Anti-miR, GUUUGAUAAACUGACACAAC, SEQ ID NO: 6 (listed as RNA, chemistry not given here)
PD-L1 protein levels [1]: increase
mRNA levels of the validated miRNA target [2]: changed

c1cc(CN2CCCNCCNCCCNCC2)ccc1CN1CCCNCCNCCCNCC1 [plerixafor]
percentage of CD34+PD-L1+ cells (peripheral CD34+ cells; T1D patients): remained stable
percentage and absolute number of CD34+ cells (peripheral CD34+ cells; 5 T1D patients and 8 healthy controls): significantly increased
percentage of CD34+PD-L1+ cells (peripheral CD34+ cells; healthy controls): decreased
